Data reported in US20100317690A1, “TREATMENT OF PROTEIN FOLDING DISORDERS” (SUMMIT CORPORATION PLC, priority 2007, published 2010).

Biological target: T1, Jack bean α-D-mannosidase (Canavalia ensiformis, UniProt C0HJB3)
T1 construct: purchased Sigma M7257
T1 sequence (C0HJB3 1-981): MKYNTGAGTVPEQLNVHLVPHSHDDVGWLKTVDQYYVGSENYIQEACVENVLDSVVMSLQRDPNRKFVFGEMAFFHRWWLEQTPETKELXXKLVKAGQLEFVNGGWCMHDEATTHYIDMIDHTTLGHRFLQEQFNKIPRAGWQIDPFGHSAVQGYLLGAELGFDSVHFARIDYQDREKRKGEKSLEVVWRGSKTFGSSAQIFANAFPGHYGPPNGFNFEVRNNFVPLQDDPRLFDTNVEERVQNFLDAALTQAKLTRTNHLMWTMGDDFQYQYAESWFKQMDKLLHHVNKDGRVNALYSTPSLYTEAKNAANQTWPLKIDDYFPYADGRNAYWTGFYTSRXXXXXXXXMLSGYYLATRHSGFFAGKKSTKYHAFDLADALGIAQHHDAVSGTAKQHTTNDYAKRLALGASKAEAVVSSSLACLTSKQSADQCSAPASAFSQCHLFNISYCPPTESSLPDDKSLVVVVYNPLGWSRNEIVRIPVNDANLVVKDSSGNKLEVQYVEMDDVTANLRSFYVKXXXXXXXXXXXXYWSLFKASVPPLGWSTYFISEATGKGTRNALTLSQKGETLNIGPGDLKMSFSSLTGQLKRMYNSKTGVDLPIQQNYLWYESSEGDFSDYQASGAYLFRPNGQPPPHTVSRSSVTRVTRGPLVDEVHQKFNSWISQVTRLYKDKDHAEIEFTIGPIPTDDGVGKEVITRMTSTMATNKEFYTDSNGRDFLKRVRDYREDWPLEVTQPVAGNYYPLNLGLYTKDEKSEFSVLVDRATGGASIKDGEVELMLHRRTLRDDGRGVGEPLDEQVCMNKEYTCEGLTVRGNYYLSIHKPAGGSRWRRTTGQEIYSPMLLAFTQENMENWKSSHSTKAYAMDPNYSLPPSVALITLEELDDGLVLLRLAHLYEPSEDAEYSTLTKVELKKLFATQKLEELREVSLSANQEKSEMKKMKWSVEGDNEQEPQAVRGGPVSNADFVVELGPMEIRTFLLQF
Assay: Jack bean α-D-mannosidase activity assay (PNP-α-D-mannopyranoside substrate)
Type: biochemical
Method: Fresh solutions had been prepared a day or so earlier of 0.2M Mcllvane buffer at pH 4.5 and 5 mM PNP-α-D-mannopyranoside (Sigma, N2127) in pH 4.5 buffer. Also prepared was a dilution of Jack bean α-D-mannosidase enzyme (Sigma, M7257, 22 Units/mg, 6.2 mg/ml.) at 0.6 Units/ml in pH 4.5 buffer.
The incubation mixture consisted of 10 μl enzyme solution, 10 μl of 1 mg/ml aqueous inhibitor solution and 50 μl of 5 mM substrate made up in buffer at the optimum pH for the enzyme. The reactions were stopped by addition of 70 μl 0.4M glycine (pH 10.4) during the exponential phase of the reaction, which had been determined at the beginning using uninhibited assays in which water replaced inhibitor. Final absorbances were read at 405 nm using a Versamax microplate reader (Molecular Devices). Assays were carried out in triplicate, and the values given are means of the three replicates per assay. Results were expressed as a percentage of uninhibited assays in which water replaced inhibitor.

`O[C@H]1[C@H]2[C@H](O)CCCN2C[C@H]1O` [swainsonine] was tested, and the “inhibition of the promoted activity” value (activity promoted by imino sugars with a mannose configuration) was “total inhibition”, the “promotion of the mannosidase” value (any concentration tested) was “does not cause promotion” and the inhibition (swainsonine alone, or mixed with an equal concentration of the selected stimulating compound) was 100%.
